The results in this text go back to ChEMBL document CHEMBL1142389, “New insights into the first oxidative phenol coupling reaction during vancomycin biosynthesis” (Bioorg Med Chem Lett, 2008).

This assay concerns the target T1, Cytochrome P450 165B3 (Amycolatopsis orientalis, UniProt Q8RN04).
T1 sequence (Q8RN04 whole entry): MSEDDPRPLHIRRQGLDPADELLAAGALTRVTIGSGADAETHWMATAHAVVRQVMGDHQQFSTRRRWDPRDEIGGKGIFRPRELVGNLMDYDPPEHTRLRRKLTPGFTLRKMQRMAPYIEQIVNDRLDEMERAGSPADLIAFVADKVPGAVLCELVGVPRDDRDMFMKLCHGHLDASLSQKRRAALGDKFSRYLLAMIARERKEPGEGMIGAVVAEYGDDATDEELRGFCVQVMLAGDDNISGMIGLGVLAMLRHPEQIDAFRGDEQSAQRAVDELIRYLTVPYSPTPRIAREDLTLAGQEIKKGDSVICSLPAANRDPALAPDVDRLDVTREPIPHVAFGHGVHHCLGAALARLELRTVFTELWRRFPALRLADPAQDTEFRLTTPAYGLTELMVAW
The assay can be described thus: Binding affinity to Amycolatopsis orientalis OxyB.

`CN[C@H](CC(C)C)C(=O)N[C@H](Cc1ccc(O)cc1)C(=O)N[C@@H](CC(N)=O)C(=O)N[C@@H](C(=O)N[C@@H](C(=O)N[C@H](Cc1ccc(O)cc1)C(=O)O)c1ccc(O)cc1)c1ccc(O)cc1` returned a Kd of 35 µM.

Take `CN[C@H](CC(C)C)C(=O)N[C@H](Cc1ccc(O)cc1)C(=O)N[C@@H](CC(N)=O)C(=O)N[C@@H](C(=O)N[C@@H](C(=O)N[C@@H](Cc1ccc(O)cc1)C(=O)O)c1ccc(O)cc1)c1ccc(O)cc1`: the Kd is 17 µM.

For orientation: Kd means the equilibrium constant for the complex coming apart. Low readings indicate a tighter complex, high ones a looser complex.
